How the values were obtained:
[1] = test system: Rice (Oryza Sativa, ORYSA); experiment: Safening activity to rice in the field, visual crop injury; conditions: 50 g ai/ha
Experimental: The treated plots and control plots were rated blind at various intervals after application.
Colby's equation was used to determine the herbicidal effects expected from the mixtures (Colby, S. R. Calculation of the synergistic and antagonistic response of herbicide combinations. Weeds 1967, 15, 20-22).
However, the experiments described herein were performed such that active ingredients A and B were combined and only the efficacy of the combination was determined. As such, Colby's equation simplifies to […]

[2] = test system: Digitaria species (DIGSS); experiment: Postemergence herbicidal activity of mixtures in the field (rice small plots), visual weed control; format: in vivo; conditions: 50 g ai/ha
Excerpt: (§1) Bispyribac was used as Nominee® 100SC or Nominee® 400SC.
(§2) As such, Colby's equation simplifies to […]

[3] = test system: Echinochloa colonum (L.) LINK (junglerice, ECHCO); experiment: as above; format: in vivo; conditions: 30 DAA, 52 g ai/ha
Excerpt: as §1, §2

[4] = test system: Ischaemum rugosum (Saramollagrass, ISCRU); experiment: as above; format: in vivo; conditions: 50 g ai/ha
Excerpt: as §1, §2

[5] = test system: Rottboellia exaltata (Guineafowlgrass, ROOEX); experiment: as above; format: in vivo; conditions: 50 g ai/ha
Excerpt: as §1, §2

`COc1cc(OC)nc(Oc2cccc(Oc3nc(OC)cc(OC)n3)c2C(=O)[O-])n1.[Na+]` [Bispyribac-Sodium, sodium 2,6-bis((4,6-dimethoxypyrimidin-2-yl)oxy)benzoate] was tested, and the “Percent (%) Crop Injury” value ([1]; 6 DAA) was 2.2%, the “Percent (%) Crop Injury” value ([1]; 17 DAA) was 0.9% and the “Percent (%) Crop Injury” value ([1]; 27 DAA) was 3%. The “Percent (%) Visual Control” value ([2]; 6 DAA) was 93%, the “Percent (%) Visual Control” value ([2]; 17 DAA) was 88% and the “Percent (%) Visual Control” value [3] was 86.25%. The “Percent (%) Visual Control” value ([4]; 6 DAA) was 0%, the “Percent (%) Visual Control” value ([4]; 12 DAA) was 30% and the “Percent (%) Visual Control” value ([4]; 16 DAA) was 46.8%. The “Percent (%) Visual Control” value ([4]; 17 DAA) was 0%, the “Percent (%) Visual Control” value ([4]; 27 DAA) was 9.25% and the “Percent (%) Visual Control” value ([4]; 32 DAA) was 0%. For the same molecule, the “Percent (%) Visual Control” value ([4]; 40 DAA) was 0%, the “Percent (%) Visual Control” value ([5]; 16 DAA) was 87.3% and the “Percent (%) Visual Control” value ([5]; 32 DAA) was 69.5%.

— patent publication US20160353738A1, “SYNERGISTIC HERBICIDAL COMPOSITION CONTAINING PENOXSULAM, TRICLOPYR AND BISPYRIBAC” (Dow AgroSciences LLC, priority 2014, published 2016)
